According to patent publication US11649228B2, “Zinc indicators for cellular imaging” (The Board of Regents of the University of Texas System, priority 2018, dated 2023):
pKd: −log10 of the molar value.

How the values were obtained:
[1] = Zn^2+ titration of ZIGIRs by fluorescence emission (Hill plot); format: binding
Procedure: UV-Vis spectra were recorded in a 1-cm path quartz cell on a Shimadzu 2401 PC spectrometer. Fluorescence excitation and emission spectra were recorded on a Fluorolog 3 spectrometer (Jobin-Yvon Horiba, Edison, N.J.). Zinc titration was performed by adding ZIGIRs (0.5 μM final concentration) to buffered Zn^2+ solutions containing 100 mM HEPES (pH 7.4). Nitrilotriacetic acid (NTA, 10 mM) and varying concentrations of ZnSO4 (0-9 mM) were mixed to reach free Zn^2+ concentrations between 0.1 nM and 40 nM (Li et al., 2011). Zn^2+ concentrations above 40 nM were controlled by iminodiacetate (IDA, 10 mM) and varying amounts of ZnSO4 (0-9.7 mM) in 100 mM HEPES (pH 7.4; Sasaki et al., 2011). To determine Zn^2+ binding dissociation constants (Kd(Zn^2+)), the Zn^2+ titration data were fitted to the least square exponential equation (Prism 7). Fluorescence quantum yields of ZIGIRs at pH 7.5 were determined using rhodamine 6G as the reference (Φfl=0.94 in MeOH; Magde et al., 2002). An example in shown FIGS. 11A0B. To examine the pH sensitivity of ZIGIRs, the fluorescence emission spectra was recorded from pH 3-9.4 in either nominally Zn^2+-free solutions containing 5 mM iminodiacetate or in 25 μM ZnSO4 solutions. The pH was controlled with 10 mM pH buffers including chloroacetic acid (pH 3.1), acetate (pH 4.1 and 5.0), 2-morpholinoethanesulfonic acid (MES, pH 6.14), HEPES (pH 7.5) and N-cyclohexyl-2-aminoethanesulfonic acid (CHES, pH 9.4).

[2] = tested on: MIN-6 β cells; assay: Confocal imaging of ZIGIR-labeled live β cells; format: cell-based, mouse
Procedure: To assess ZIGIRs' ability for imaging granular Zn^2+ in living cells, an insulin secreting β cell (MIN-6 cell) was labeled with ZIGIRs. After dye loading (0.5 μM for 15 min) and washing, cells were imaged by confocal laser scanning microscopy (CLSM). […] After raising cellular Zn^2+ level by adding a Zn^2+ ionophore (pyrithione, 10 μM) and Zn^2+ (20 μM), a drastic enhancement of ZIGIR-2 signal was observed. […] Subsequent washout of zinc/pyrithione and addition of a Zn^2+ chelator TPEN depleted cellular Zn^2+ activity and dampened ZIGIR-2 intensity to nearly the background level (FIGS. 6D & 6E). Overall ZIGIR-2 intensity increased about 12-fold going from the low Zn^2+ (TPEN) to the high Zn^2+ state (Zn^2+/pyrithione), with a cell-to-cell variation of 12.04±4.8 fold (mean±SD, N=20 cells).
(§1) MIN-6 β cells were cultured as previously described (Li et al., 2011). HEK293 cells were cultured in DMEM medium supplemented with 10% FBS and 1% Penicillin/Streptomycin. T47D cells were cultured in RPMI-1640 medium supplemented with 10% FBS, 0.5% non-essential amino acids, 1 mM sodium pyruvate, 10 μg/mL geneticin and 0.01 mg/mL insulin. H1299 cells were cultured in RPMI-1640 medium supplemented with 10% FBS. All cells were maintained at 37° C. with 5% CO2. For cell imaging, cells were seeded in 35-mm petri dishes with glass bottoms (MatTek) and cultured for ˜24 hours to reach ˜50% confluence. Prior to labeling, cells were washed with a secretion assay buffer (SAB) containing 114 mM NaCl, 4.7 mM KCl, 1.2 mM KH2PO4, 2.5 mM CaCl2, 1.16 mM MgSO4, 3 mM glucose, and 20 mM Hepes (pH 7.4). Cells were then incubated with ZIGIRs (0.5-1 μM) in SAB at 37° C. for 15 min, and washed with SAB before imaging on a Zeiss LSM 780 confocal microscope using 561 nm laser for exciting ZIGIR-2 (Em 570-650 nm) and 514 nm laser for exciting ZIGIR-1 (Em 516-650 nm). LysoTracker Green (ThermoFisher Scientific) was used at 0.4 μM to label acidic organelles and was added to cells <5 min before imaging. […] ZIGIR colocalization with LysoTracker Green was analyzed and quantified with JACoP plugin of ImageJ.

[3] = tested on: human islet endocrine cells; assay: Flow cytometry analysis and sorting of human islet cells with ZIGIR-2; format: cell-based; conditions: ZIGIR-2, HPi2 and TM4SF4 labeling
From the text: Thus far the majority of studies on ZnT8 and Zn^2+ signaling have been carried out in mouse islet cells, and less is known about the expression of ZnT8 and Zn^2+ distribution in human islet endocrine cells. To analyze granular Zn^2+ activity in human islets by flow cytometry, the inventors dispersed human islets into single cells and sequentially labeled them with ZIGIR-2 and antibodies reactive towards human pancreatic endocrine cells and α-cells (FIG. 12A), including the HPi2 antibody (Dorrell et al., 2008) and an antibody of a tetraspanin family member protein TM4SF4 (Muraro et al., 2016), respectively. The islet endocrine cells (HPi2+, FIG. 13) contained a subset of cells showing high ZIGIR-2 signal and low TM4SF4 expression (P1 subset, FIG. 12B). Immunofluorescence analysis of the sorted cells confirmed that the P1 subset was highly enriched with human β-cells (91%), together with a small percent of δ-cells (FIG. 12C). […] They obtained similar flow cytometry results from different human donors and confirmed high enrichments of β-cell or α-cell in P1 or P2 subset (including P2a and P2b), respectively (FIG. 14). […] In addition to containing more glucagon granules, P2a cells might also express more ZnT8 protein than P2b. Future studies using more quantitative techniques such as western blot should help address the issue.

[4] = tested on: T47D human breast cancer cells, H1299 lung carcinoma and HEK293 human embryonic kidney cells; assay: ZIGIR-2 imaging in cells not known to contain Zn^2+ rich secretory granules; format: cell-based
Procedure: To better understand the granular labeling specificity of ZIGIR-2, a number of mammalian cells were imaged that are not known to contain Zn^2+ rich secretory granules. These included T47D human breast cancer cells, H1299 lung carcinoma and HEK293 human embryonic kidney cells. […] However, after adding Zn/pyrithione, distinct ZIGIR-2 positive spots emerged in these cells (FIG. 8B). Subsequently, LysoTracker Green (LTG), an acidotropic fluorescent tracer based on BODIPY dye, was added to label acidic granules.
as §1, with “7.4).” for “7.4). Cells were then incubated with ZIGIRs (0.5-1 μM) in SAB at 37° C. for 15 min, and washed with SAB before imaging on a Zeiss LSM 780 confocal microscope using 561 nm laser for exciting ZIGIR-2 (Em 570-650 nm) and 514 nm laser for exciting ZIGIR-1 (Em 516-650 nm). LysoTracker Green (ThermoFisher Scientific) was used at 0.4 μM to label acidic organelles and was added to cells <5 min before imaging.”

pKd ([1]; 100 mM HEPES pH 7.4): 6.51
pKd ([1]; Table 2): 6.09
stability of intensity of labeled granules on repetitive imaging ([2]; MIN6 cells, imaged every 5 sec over ~30 min): remains stable
SMILES: CN(C)c1ccc2c(-c3ccc(NCCN(CCc4ccccn4)Cc4ccccn4)cc3C(=O)[O-])c3ccc(=[N+](C)C)cc-3oc2c1 [ZIGIR-2]
FC (fold change in fluorescence brightness ϕfl×ε from Zn^2+-free to Zn^2+-bound state) [1]: 34
Zn^2+ response (fold change) ([1]; Table 2): 34×
increase of intensity from low Zn^2+ (TPEN) to high Zn^2+ state (Zn^2+/pyrithione) ([2]; MIN-6 cells, overall): about 12 fold
increase of intensity from TPEN to Zn^2+/pyrithione, cell-to-cell variation ([2]; mean±SD, N=20 cells): 12.04±4.8 fold
α-cell purity of sorted P2a and P2b subsets [3]: > 95%
β-cells in sorted P1 subset [3]: 91%
overlap of ZIGIR-2 positive puncta with LysoTracker Green marked granules ([4]; after Zn/pyrithione): overlapped remarkably well
fluorescence signal in basal SAB buffer ([4]; same dye loading and imaging conditions as MIN6 cells): barely any ZIGIR-2 fluorescence signal was detected
